Consider five compounds from publication PMC12391581 (Antiviral Research, 2025).

Several values for one entry are separate records, joined by “and”; a condition that tells them apart may be missing. Equal entries are not always repeated. Marks after values point to notes of the source that are not given here.

The subject of assay [1] is neuraminidase (NA) of B/Victoria-lineage viruses. It counts as biochemical, influenza B/Victoria-lineage virus.
The subject of assay [2] is neuraminidase (NA) of A(H1N1)pdm09 viruses. It counts as biochemical, influenza A(H1N1)pdm09 virus.
The test system of assay [3] is neuraminidase (NA) of A(H3N2) viruses. It counts as biochemical, influenza A(H3N2) virus.
Assay [4] concerns A(H3N2) viruses. It counts as cell-based, influenza A(H3N2) virus.
In assay [5] the test system is A(H3N2) viruses. It counts as cell-based, influenza A(H3N2) virus. The source holds these as a separate data set.
In another assay the test system is A(H1N1)pdm09 viruses. It counts as cell-based, influenza A(H1N1)pdm09 virus.

As to `[H]/N=C(\N)N[C@H]1C=C(C(=O)O)O[C@@H]([C@H](OC)[C@H](O)CO)[C@@H]1NC(C)=O` [Laninamivir, laninamivir], in assay [1], the “Fold-change in IC50” value turned out to be 0.91 fold and the “IC50 fold-change compared to reference median IC50 values” came out at 0.91 fold.
Turning to `CCC(CC)[C@H](NC(C)=O)[C@@H]1[C@H](O)[C@@H](C(=O)O)C[C@H]1N=C(N)N` [Peramivir, peramivir], in assay [1], the “Fold-change in IC50” value turned out to be 158 fold, the “IC50 fold-change compared to reference median IC50 values” is 158 fold and the “NAI inhibition phenotype (NI/RI/HRI)” value is reported as “HRI (key: normal inhibition (NI) is a <5-fold increase in the NAI IC50; RI is a 5- to 50-fold increase; HRI is a >50-fold increase)”. For the same compound, in assay [2], the “NAI inhibition phenotype (NI/RI/HRI)” value is “HRI (key: normal inhibition (NI) is a <10-fold increase in the NAI IC50; RI is a 10- to 100-fold increase; HRI is a >100-fold increase)”.
With `CC(=O)N[C@H]1[C@H]([C@H](O)[C@H](O)CO)OC(C(=O)O)=C[C@@H]1N=C(N)N` [Zanamivir, zanamivir], in assay [1], the “IC50 fold-change (borderline RI)” value is 5.76- to 6.25 fold. For the same compound, in assay [3], the “Fold-change in IC50” value is 10.16 fold, the “IC50 fold-change compared to reference median IC50 values” was found to be 10.16 fold and the “NAI inhibition phenotype (NI/RI/HRI)” value is given as “RI (key: normal inhibition (NI) is a <10-fold increase in the NAI IC50; RI is a 10- to 100-fold increase; HRI is a >100-fold increase)”.
For the compound `COC(=O)OCOc1c2n(ccc1=O)N([C@@H]1c3ccccc3SCc3c1ccc(F)c3F)[C@@H]1COCCN1C2=O` [Baloxavir, baloxavir marboxil], in the assay with A(H3N2) viruses [4], the “HINT fold-change compared to PA-sequence matched virus” value was found to be 4.4 fold. Further, the “IRINA fold-change compared to PA-sequence matched virus” value with A(H3N2) viruses [5] is recorded as 4.8 fold. Also, in the assay with A(H1N1)pdm09 viruses, the “EC50 fold-change compared to reference median EC50 values” was 2.72 fold and 2.72 ^e fold; the “Fold change in EC50” value was 2.72^d fold; the baloxavir susceptibility phenotype entry was “RS (key: RS to baloxavir is provisionally defined as >3-fold change in EC50 of a test virus compared to the subtype/lineage-specific median EC50 values)”.
With `CCOC(=O)C1=C[C@@H](OC(CC)CC)[C@H](NC(C)=O)[C@@H](N)C1` [Oseltamivir, oseltamivir], in assay [3], the “Fold-change in IC50” value worked out at 1.86 fold and the “IC50 fold-change compared to reference median IC50 values” is 1.86 fold.
